We go through seven compounds from patent US12590097B2 (priority 2020, dated 2026).

One data set can be described thus: in vitro. The format is in vitro ADME. The settings on record: human plasma containing 5 mM MgCl2, 37° C., LC-MS/MS; read-out: T1/2 (h) Plasma (converted). The protocol: To 1 mL of human plasma containing 5 mM MgCl2 was added 2 μL of a solution of 50 mM compound to be tested in DMSO, and the mixture was incubated at 37° C. 100 μL of sample was taken at different time points, into which 200 μL of methanol was added, and the mixture was centrifuged at 14000 rpm at 4° C. for 30 min. 100 μL of supernatant was taken, into which 100 μL of methanol was added, and the mixture was frozen at −20° C. for later use.
(§1) The content of the compound to be tested in plasma or liver microsome was determined by LC-MS/MS, and the half-life was calculated. Instruments: Prominence 20 A liquid chromatograph from Shimadzu, API 4000 Q-TRAP mass spectrometer from Applied Biosystems; mass spectrometry conditions: ESI negative ion detection; chromatographic column: Diamonsil C18 (100×4.6 mm, 5 μm) chromatographic column; column temperature: 40° C.; flow rate: 0.5 mL/min. Mobile phase A: methanol; mobile phase B: 5% aqueous methanol solution (containing 2 mM ammonium formate); flow rate: 0.5 mL/min; gradient elution as shown in the following table: […]

A short description of data set [1]: Evaluation of metabolic stability in human liver microsome (human liver S9 components). The format is in vitro ADME. The settings on record: liver S9 components (headed liver microsome); human liver S9 components 4 mg/mL, pH 7.4, 37° C., LC-MS/MS; read-out: T1/2 (h) Liver microsome (converted). The procedure:
To 1 mL of buffer containing 5 mM MgCl2 and 50 mM K2HPO4 (pH 7.4) was added 2 μL of a solution of 50 mM compound to be tested in DMSO, then human liver S9 components were added to reach 4 mg/mL, and the mixture was incubated at 37° C. 100 μL of sample was taken at different time points, into which 300 μL of methanol was added, and the mixture was centrifuged at 14000 rpm for 30 min at 4° C. 100 μL of supernatant was taken, into which 100 μL of methanol was added, and the mixture was frozen at −20° C. for later use.
as §1
A general note: Microsomes from liver hold many membrane-bound enzymes, among them those of drug oxidation.

The nature of data set [2]: Pharmacokinetic evaluation in beagle dogs. In kind it is in vivo. The note with it: for Cmax: male, dog, po, plasma, intragastric, II-1 5 mg/kg, II-6 5.13 mg/kg, I-5-B 5.27 mg/kg, read-out: Cmax(ng/ml) Prodrug prototype. The procedure:
Male beagle dogs (7-8 months old, weighing 7-10 kg) were randomly divided into groups (2 beagle dogs per group) and weighed. The beagle dogs were fasted for 12 h before administration. The sample to be tested at a certain concentration was ground and suspended in 0.5% sodium carboxymethylcellulose solution, and II-1 (5 mg/kg), II-6 (5.13 mg/kg) or I-5-B (5.27 mg/kg) was administered intragastrically to the beagle dogs. Before administration and 0.5 h, 1 h, 2 h, 4 h, 6 h, 8 h, 10 h and 24 h after administration, 0.5 mL of blood was collected from the cephalic vein of forelimb separately, anticoagulated with sodium heparin, centrifuged to separate out the plasma, which was stored at −80° C. for determination.
50 μL of drug-containing plasma was taken, into which 50 μL of methanol and 100 μL of internal-standard acetaminophen methanol solution were added, and the mixture was vortexed for 1 min and centrifuged at 12000 rpm for 10 min at 4° C. The supernatant was taken and placed in an internal insert tube for quantitative analysis by LC-MS/MS (the method was the same as that in Example 7).

In another data set the test system is hepatitis B. The settings on record: ducks; disclosed in CN103804417A; cited from earlier work.

As to `C=C1[C@H](CO[P@@](=O)(N[C@@H](C)C(=O)OC(C)C)Oc2ccccc2)[C@@H](O)C[C@@H]1n1cnc2c(=O)[nH]c(N)nc21` [I-5-B, 2-amino-1,9-dihydro-9-[(1S,3R,4S)-4-hydroxy-3-((S)-((S)-1-isopropoxycarbonylethylamino-phenoxy-phosphoryl)-oxymethyl)-2-methylenecyclopentyl]-6H-purin-6-one, reference compound], in the data set “in vitro”, the half-life at 100 µM is > 24 h. Besides, the half-life at 100 µM in data set [1] is 0.4 h. Further, in data set [2], the “prodrug prototype present in plasma (in words)” value is reported as “high concentration”, the “transformation into the active form (in words)” value is given as “can not be completely transformed into the active form” and the Cmax was found to be 864 ng/mL. Further, the “antiviral effect on hepatitis B in vivo (in words)” value in the data set with hepatitis B was “good antiviral effect”.
Consider `C=C1[C@H](CO[P@@](=O)(N[C@@H](C)C(=O)OC)Oc2ccccc2)[C@@H](O)C[C@@H]1n1cnc2c(=O)[nH]c(N)nc21` [II-1, 2-amino-1,9-dihydro-9-[(1S,3R,4S)-4-hydroxy-3-((S)-((S)-1-methoxycarbonylethylamino-phenoxy-phosphoryl)-oxymethyl)-2-methylenecyclopentyl]-6H-purin-6-one], for which the half-life at 100 µM is 15.3 h in the data set “in vitro” and 0.27 h in data set [1]. The “plasma concentration of the prodrug prototype (in words, versus I-5-B)” value in data set [2] (intragastric administration) is “significantly lower than that of the I-5-B”. The Cmax in data set [2] stood at 331 ng/mL.
For the compound `C=C1[C@H](CO[P@@](=O)(N[C@@H](C)C(=O)OC)Oc2ccc(F)cc2)[C@@H](O)C[C@@H]1n1cnc2c(=O)[nH]c(N)nc21` [II-2, 2-amino-1,9-dihydro-9-[(1S,3R,4S)-4-hydroxy-3-((S)-((S)-1-methoxycarbonylethylamino-(4-fluoro-phenyl)oxy-phosphoryl)-oxymethyl)-2-methylenecyclopentyl]-6H-purin-6-one], the values for the half-life at 100 µM (in “in vitro”; in data set [1]) were 10.6 h and 0.13 h, respectively.
As for `C=C1[C@H](CO[P@@](=O)(N[C@@H](C)C(=O)OC)Oc2ccc(Cl)cc2)[C@@H](O)C[C@@H]1n1cnc2c(=O)[nH]c(N)nc21` [II-3, 2-amino-1,9-dihydro-9-[(1S,3R,4S)-4-hydroxy-3-((S)-((S)-1-methoxycarbonylethylamino-(4-chloro-phenyl)oxy-phosphoryl)-oxymethyl)-2-methylenecyclopentyl]-6H-purin-6-one], the half-life at 100 µM in “in vitro” was 7.5 h; in data set [1], 0.06 h.
Turning to `C=C1[C@H](CO[P@@](=O)(N[C@@H](C)C(=O)OC)Oc2ccc(Br)cc2)[C@@H](O)C[C@@H]1n1cnc2c(=O)[nH]c(N)nc21` [II-4, 2-amino-1,9-dihydro-9-[(1S,3R,4S)-4-hydroxy-3-((S)-((S)-1-methoxycarbonylethylamino-(4-bromo-phenyl)oxy-phosphoryl)-oxymethyl)-2-methylenecyclopentyl]-6H-purin-6-one], the half-life at 100 µM is 6.2 h in “in vitro” and 0.06 h in data set [1].
Consider `C=C1[C@H](CO[P@@](=O)(N[C@@H](C)C(=O)OC)Oc2ccc(OC)cc2)[C@@H](O)C[C@@H]1n1cnc2c(=O)[nH]c(N)nc21` [II-5, 2-amino-1,9-dihydro-9-[(1S,3R,4S)-4-hydroxy-3-((S)-((S)-1-methoxycarbonylethylamino-(4-methoxy-phenyl)oxy-phosphoryl)-oxymethyl)-2-methylenecyclopentyl]-6H-purin-6-one], for which the half-life at 100 µM is 4.9 h in the data set “in vitro” and 0.03 h in data set [1].
With `C=C1[C@H](CO[P@@](=O)(N[C@@H](C)C(=O)OC)Oc2ccc(C)cc2)[C@@H](O)C[C@@H]1n1cnc2c(=O)[nH]c(N)nc21` [II-6, 2-amino-1,9-dihydro-9-[(1S,3R,4S)-4-hydroxy-3-((S)-((S)-1-methoxycarbonylethylamino-(4-methyl-phenyl)oxy-phosphoryl)-oxymethyl)-2-methylenecyclopentyl]-6H-purin-6-one], the values for the half-life at 100 µM (in the data set “in vitro”; in data set [1]) were 10.8 h and 0.19 h, respectively. In data set [2], the Cmax is 633 ng/mL.
